Experimental findings from PMC8131363 (Scientific Reports, 2021) are described below.

Assay [1] addresses T1, cCaSR (Felis catus, UniProt C7FF08).
T1 sequence (C7FF08 1-1081): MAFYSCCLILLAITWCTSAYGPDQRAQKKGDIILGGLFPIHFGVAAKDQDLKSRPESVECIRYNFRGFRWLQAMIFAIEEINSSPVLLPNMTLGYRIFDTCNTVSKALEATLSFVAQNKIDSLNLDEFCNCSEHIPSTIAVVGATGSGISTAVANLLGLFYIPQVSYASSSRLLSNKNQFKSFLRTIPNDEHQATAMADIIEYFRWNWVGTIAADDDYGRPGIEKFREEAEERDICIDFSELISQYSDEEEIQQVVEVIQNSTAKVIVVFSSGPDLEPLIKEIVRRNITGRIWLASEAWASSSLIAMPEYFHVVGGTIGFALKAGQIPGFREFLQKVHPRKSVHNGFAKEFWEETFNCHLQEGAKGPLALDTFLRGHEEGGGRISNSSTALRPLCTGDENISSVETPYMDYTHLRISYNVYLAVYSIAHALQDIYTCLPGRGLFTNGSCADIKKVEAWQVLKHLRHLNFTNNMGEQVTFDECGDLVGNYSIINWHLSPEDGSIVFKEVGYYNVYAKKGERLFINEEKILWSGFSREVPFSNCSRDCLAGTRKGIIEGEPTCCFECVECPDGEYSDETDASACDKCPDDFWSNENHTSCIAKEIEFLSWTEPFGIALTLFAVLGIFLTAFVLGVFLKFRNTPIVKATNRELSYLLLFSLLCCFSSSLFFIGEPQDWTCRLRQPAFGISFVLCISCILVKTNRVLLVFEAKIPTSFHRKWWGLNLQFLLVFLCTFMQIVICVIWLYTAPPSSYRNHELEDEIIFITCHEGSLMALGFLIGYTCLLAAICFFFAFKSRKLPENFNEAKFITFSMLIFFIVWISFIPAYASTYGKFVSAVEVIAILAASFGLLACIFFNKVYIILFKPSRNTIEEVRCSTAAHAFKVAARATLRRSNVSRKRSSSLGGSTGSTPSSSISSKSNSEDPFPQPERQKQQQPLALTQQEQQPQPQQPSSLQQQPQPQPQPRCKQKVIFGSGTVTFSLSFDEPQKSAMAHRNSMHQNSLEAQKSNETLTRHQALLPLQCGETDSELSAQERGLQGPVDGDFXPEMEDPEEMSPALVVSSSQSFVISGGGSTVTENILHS
Description: cCaSR PAM luminescence assay, double injection with 0.5 mM CaCl2, HEK293/T-REx/natClytin-cCaSR.
Description: The cCaSR expression constructs were stably-transfected in the mammalian cell line, HEK293/ T-REx/ natClytin. Transfections were performed by electroporation, following standard methodologies. Stably-transfected target and mock pools were obtained after 2–3 weeks of antibiotic selection, and clones were selected for testing. In order to evaluate the activity of each clone, 10 mM Calcium was injected onto the cells and the resulting luminescence was measured.
All compounds screened on the receptor were analysed in parallel with Calcium, on the HEK293/ T-REx/ natClytin-cCaSR or hCaSR stable or transient cell lines. Prior to the measurements, the cells were incubated with 10 µM of photoprotein substrate, Coelenterazine, prepared in Calcium-free Tyrode’s buffer at 37 °C for 3–4 h. All the data was captured using a FLIPR Tetra (Molecular Devices). A single or double injection protocol was used to capture the data for potential agonists and PAMs, respectively. The compounds tested were all prepared at desired concentration in Calcium-Free Tyrode’s buffer supplemented with 0.5% DMSO. For the activity determination of potential agonists, the single injection protocol was used, with CaCl2 as the positive control for each run. Each compound was injected into specific wells and the luminescence signal was measured for 1 min. for each compound. For potential PAMs, the double injection protocol was used. The first injection was identical to the one described above for potential agonists. A 20 min. resting period followed the first injection and a second injection of 0.5 mM CaCl2 in Calcium-free Tyrode’s buffer was injected to all wells, and the resulting luminescence signal was again measured for 1 min for each compound.
The half maximal effective concentrations (EC50) were identified by nonlinear regression using a variable slope model with the equation Y = Bottom + (X^Hillslope)*(Top–Bottom)/ (X^HillSlope + EC50^HillSlope), where Y is the agonist concentration, Top and Bottom are the plateaus in the same units as Y and HillSlope is the Slope factor or Hill slope. All calculations and plots were done using GraphPad Prism 8. […] In these cases the EC50 was noted as being higher than the maximum concentration used in the assay.

The target of assay [2] is T1, cCaSR. The assay is described as follows: cell-based.
In assay [3] the target is T1, cCaSR. The note with it: agonist assay; for EC50 Ago (M): Supplementary Table I, dash = no activity.
Setting [4] is: Supplementary Table I, PAM assay, dash = no activity.
The mark [5] stands for this setting: cCaSR activity, agonist assay, stable inducible cCaSR line, at least three wells.
[6] abbreviates: EC50 (M), agonist assay, stable inducible cCaSR line, > 0.01 M = maximal response not reached.
The mark [7] stands for this setting: EC50 Ago (M), Supplementary Table I, agonist assay, > 0.01 M = maximal response not reached.

Counter-ions that a name gives are not always drawn. Like-named read-outs stand apart in the source and are kept apart here.

For the compound `CC[C@H](NC(=O)CC[C@H](N)C(=O)O)C(=O)O`, on cCaSR [1] (setting [4]), the “EC50 PAM (M)” value is reported as “-”. Also, the EC50 at cCaSR [2] (setting [5]) is greater than 0.01 M.

With `NC(CC(F)C(=O)O)C(=O)O` (racemic) [4-Fluoro-DL-glutamic acid], the “EC50 PAM (M)” value at cCaSR [1] (setting [4]) is recorded as “-”. The EC50 at cCaSR [2] (setting [5]) was greater than 0.01 M.

Regarding `NC(CC(C(=O)O)C(=O)O)C(=O)O` (racemic) [γ-Carboxy-DL-glutamic acid], the “EC50 PAM (M)” value at cCaSR [1] (setting [4]) is listed as “-”. Besides, on cCaSR [2] (setting [5]), the EC50 is greater than 0.01 M.

Consider `NC(CCP(=O)(O)O)C(=O)O` (stereo not shown) [2-Amino-4-phosphonobutyric acid], for which the “EC50 PAM (M)” value on cCaSR [1] (setting [4]) is given as “-”. Besides, the EC50 on cCaSR [2] (setting [5]) was greater than 0.01 M.

In the case of `N[C@@H](C[C@H](O)C(=O)O)C(=O)O` [2S,4S-g-Hydroxy-L-glutamic acid], the “EC50 PAM (M)” value on cCaSR [1] (setting [4]) is given as “-”. In addition, the EC50 at cCaSR [2] (setting [5]) was greater than 0.01 M.

Consider `N[C@@H](CCC(=O)N[C@@H](CSCc1c[nH]c2ccccc12)C(=O)NCC(=O)O)C(=O)O` [3-Glutathionyl-S-methylindole], for which, at cCaSR [1] (setting [4]), the “EC50 PAM (M)” value is listed as “-”. Moreover, the EC50 on cCaSR [2] (setting [6]) was 0.00374 M; at cCaSR [2] (setting [7]), 0.00375 M; at cCaSR [2] (setting [5]) it was 0.001 to 0.01 M.

Consider `CNC(C)C1CCC(N)C(OC2C(N)CC(N)C(OC3OCC(C)(O)C(NC)C3O)C2O)O1` (stereo not shown) [Gentamicin, reference compound], for which the “EC50 PAM (M)” value on cCaSR [1] (setting [4]) was “-”. Further, the figures for the EC50 on cCaSR [2] (setting [6]) and at cCaSR [2] (setting [7]) were 0.000989 M and 0.00099 M, respectively.

In the case of `N[C@@H](CCCC(=O)O)C(=O)O` [L-2-Aminoadipic acid], the “EC50 PAM (M)” value at cCaSR [1] (setting [4]) was “-”. At cCaSR [2] (setting [5]), this compound showed an EC50 greater than 0.01 M.

As for `N[C@@H](CP(=O)(O)O)C(=O)O` [L-( +)-2-Amino-3-phosphonopropionic acid, L-(+)-2-Amino-3-phosphonopropionic acid], on cCaSR [1], the “EC50 PAM (M)” value was “-”. On cCaSR [2] (cCaSR activity), this compound yielded an EC50 greater than 0.01 M.

As for `N[C@@H](CCS(=O)(=O)O)C(=O)O` [L-Homocysteic acid], the “EC50 PAM (M)” value at cCaSR [1] (setting [4]) is recorded as “-”. At cCaSR [2] (setting [5]), this compound returned an EC50 greater than 0.01 M.

As to `NC[C@@H]1O[C@H](O[C@H]2[C@@H](O)[C@H](O[C@@H]3[C@@H](O)[C@H](N)C[C@H](N)[C@H]3O[C@H]3O[C@H](CO)[C@@H](O)[C@H](O)[C@H]3N)O[C@@H]2CO)[C@H](N)[C@@H](O)[C@@H]1O` [Paromomycin sulfate salt, reference compound], the “EC50 PAM (M)” value on cCaSR [1] (setting [4]) was “-”. In addition, the EC50 on cCaSR [2] (setting [6]) and at cCaSR [2] (setting [7]) was 0.00108 M each time.

Take `NC[C@H]1O[C@H](O[C@H]2[C@H](O[C@@H]3O[C@H](CO)[C@@H](O)[C@H]3O)[C@@H](O)[C@H](N)C[C@@H]2N)[C@H](N)[C@@H](O)[C@@H]1O` [Ribostamycin sulfate salt, reference compound]: on cCaSR [1] (setting [4]), the “EC50 PAM (M)” value is listed as “-”. This compound also displayed an EC50 at cCaSR [2] (setting [5]) greater than 0.01 M.

On to `N[C@@H](CCC(=O)N[C@@H](CSCCO)C(=O)NCC(=O)O)C(=O)O` [S-(2-Hydroxyethyl)glutathione], for which the “EC50 PAM (M)” value at cCaSR [1] (setting [4]) is “-”. The EC50 at cCaSR [2] (setting [6]) is 0.00211 M; on cCaSR [2] (setting [7]) it was 0.0021 M; at cCaSR [2] (setting [5]) it was 0.001 to 0.01 M.

Turning to `CSC[C@H](NC(=O)CC[C@H](N)C(=O)O)C(=O)NCC(=O)O` [S-Methylglutathione], the “EC50 PAM (M)” value at cCaSR [1] (setting [4]) is listed as “-”. The values for the EC50 on cCaSR [2] (setting [6]), at cCaSR [2] (setting [7]) and on cCaSR [2] (setting [5]) were 0.00442 M, 0.00442 M and 0.001 to 0.01 M, respectively.

Turning to `N[C@@H](CCC(=O)NCC(=O)NCC(=O)O)C(=O)O` [γ-Glu-Gly-Gly], the “EC50 Ago (M)” value at cCaSR [3] is given as “-”. Moreover, at cCaSR [1] (setting [4]), the “EC50 PAM (M)” value is given as “-”.

Take `N[C@@H](CCC(=O)N[C@@H](Cc1cnc[nH]1)C(=O)O)C(=O)O` [γ-Glu-His]: the “EC50 Ago (M)” value at cCaSR [3] is on record as “-”. The “EC50 PAM (M)” value at cCaSR [1] (setting [4]) is reported as “-”.

On to `N[C@@H](CCCCNC(=O)CC[C@H](N)C(=O)O)C(=O)O` [γ-Glu-Lys], for which the “EC50 Ago (M)” value on cCaSR [3] is “-”. For the same compound, the “EC50 PAM (M)” value at cCaSR [1] (setting [4]) is recorded as “-”.

As to Poly-L-histidine, at cCaSR [3], the “EC50 Ago (M)” value is “-”. Also, the “EC50 PAM (M)” value on cCaSR [1] (setting [4]) is “-”.

Regarding Poly-L-lysine, on cCaSR [3] (read-out: cCaSR activity, stable inducible cCaSR line, at least three wells), the EC50 was greater than 10 mM. Further, at cCaSR [1] (setting [4]), the “EC50 PAM (M)” value is on record as “-”.
